Test system: MMP1 expression by activated synovial fibroblasts (RASFs)
Test: 'MMP assay': complex trigger-induced MMP1 expression by synovial fibroblasts (MMP1 ELISA)
Type: cell-based
Conditions: Homo sapiens, Fibroblast; RASFs, complex trigger, 48 hrs; read-out: MMP1 IC50
Procedure: A 384-well format ELISA for measurement of MMP1 is developed. Various primary antibodies are tested, as well as various ELISA protocols. The following protocol is developed and validated to measure MMP1 levels in SF supernatant in 384 well plates: white Lumitrac 600 384 well plates (Greiner) are coated with 2 μg/mL anti-MMP1 antibody MAB1346 (Chemicon). The antibody is diluted in buffer 40 (1.21 g Tris base (Sigma), 0.58 g NaCl (Calbiochem) and 5 ml 10% NaN3 (Sigma) in 1 L milliQ water and adjusted to pH 8.5). After overnight incubation at 4° C., plates are washed with PBS (80 g NaCl, 2 g KCl (Sigma), 11.5 g Na2HPO4.7H2O and 2 g KH2PO4 in 10 L milliQ; pH 7.4) and blocked with 100 μL/well Casein buffer (2% Casein (VWR International) in PBS). Next day, casein buffer is removed from ELISA plates and replaced by 50 μL/well EC buffer (4 g casein, 2.13 g Na2HPO4 (Sigma), 2 g bovine albumin (Sigma), 0.69 g NaH2PO4.H2O (Sigma), 0.5 g CHAPS (Roche), 23.3 g NaCl, 4 ml 0,5 M EDTA pH 8 (Invitrogen), 5 ml 10% NaN3 in 1 L milliQ and adjusted to pH 7.0). 0.25 mM DTT (Sigma) is added to the thawed samples plates. After removal of the EC buffer, 20 μL of sample is transferred to the ELISA plates. After overnight incubation at 4° C. plates are washed twice with PBS and once with PBST (PBS with 0.05% Tween-20 (Sigma)) and incubated with 35 μL/well biotinylated anti-MMP1 antibody solution (R&D). This secondary antibody is diluted in buffer C (0.82 g NaH2PO4.H2O, 4.82 g Na2HPO4, 46.6 g NaCl, 20 g bovine albumin and 4 mL 0,5M EDTA pH 8 in 2 L milliQ and adjusted to pH 7.0) at a concentration of 5 μg/mL. After 2 h of incubation at RT, plates are washed as described above and incubated with 50 μL/well streptavidin-HRP conjugate (Biosource). Streptavidin-HRP conjugate is diluted in buffer C at a concentration of 0.25 μg/mL. After 45 min, plates are washed as described above and incubated for 5 min with 50 μL/well BM Chem ELISA Substrate (Roche). Readout is performed on the Luminoscan Ascent Luminometer (Labsystems) with an integration time of 200 msec or with an Envision reader (Perkin Elmer).
The increase of MMP1 expression by SFs upon treatment with cytokines relevant in the field of RA (TNF-α, IL1β and OSM) or a combination thereof is shown in FIG. 2 as white bars. For this experiment, SFs are seeded in 96 well plates, 3,000 cells/well. 24 h later, the medium is changed to M199 medium supplemented with 1% FBS. One day after the medium change, cytokines or combinations thereof are added to the cultures, each cytokine being added to a final concentration of 25 ng/mL. 72 h after cytokine addition, the supernatant is collected and processed in the MMP1 ELISA as described in the protocol given above. In parallel with this experiment, SFs are triggered, using the same protocol, with the supernatant of THP1 cells (2-fold diluted in M199+1% FBS) treated with the same cytokines or combinations of cytokines for 48 h in M199 medium+1% FBS. The induction of the MMP1 expression by SFs triggered with the supernatants of TNF-α-treated THP1 cells is stronger (>4.5 fold induction) as compared to the SFs triggered with recombinant TNF-α alone (3-fold induction) and almost equals the 5-fold induction obtained by a mixture of 3 purified cytokines (TNF-α, IL1βb, OSM). […] As the role of TNF-α in the RA pathogenesis is validated (TNF-α-blockers such as Infliximab and Etanercept show some efficacy in the treatment of RA patients) and the THP-1 cells are representative for monocytes/macrophages present in the joint of RA patients, the TNF-α-based trigger mixture prepared by contacting THP-1 cells with TNF-α will contain factors present in the joints of RA patients and subsequently is relevant to RA. This TNF-α-based complex trigger, further referred to as the ‘complex trigger’, will further be used as basis for the ‘MMP assay’. […]

Row | Structure (SMILES) | IC50
1 | CC(C)N1C[C@@H]2C[C@H]1CN2c1ccc(Nc2ncc(-c3cc(C(N)=O)n[nH]3)n3ncnc23)cc1 [Compound 5, 5-{8-(4-((1S,4S)-5-isopropyl-2,5-diazabicyclo[2.2.1]heptan-2-yl)phenyl-amino)-[1,2,4]triazolo[1,5-a]pyrazin-5-yl}-1H-pyrazole-3-carboxamide] | 0.001 to 1 µM
2 | CC(C)(C)N1C[C@@H]2C[C@H]1CN2c1ccc(Nc2ncc(-c3ccc4c(c3)CNC4=O)n3ncnc23)cc1 [Compound 16, 5-{8-(4-((1S,4S)-5-tert-butyl-2,5-diazabicyclo[2.2.1]heptan-2-yl)phenylamino)-[1,2,4]triazolo-[1,5-a]pyrazin-5-yl}-2,3-dihydro-isoindol-1-one] | > 1 µM
3 | CC(C)N1C[C@@H]2C[C@H]1CN2c1ccc(Nc2ncc(-c3cc(C(N)=O)n[nH]3)n3ncnc23)cn1 [Compound 15, 5-{8-(6-((1S,4S)-5-isopropyl-2,5-diazabicyclo[2.2.1]heptan-2-yl)pyridin-3-ylamino)-[1,2,4]triazolo[1,5-a]pyrazin-5-yl}-1H-pyrazole-3-carboxylic acid amide] | > 1 µM
4 | CCOC(=O)c1cc(-c2cnc(Nc3ccc(N4C[C@@H]5C[C@H]4CN5C(C)C)cc3)c3ncnn23)[nH]n1 [Compound 21, Ethyl 5-(8-(4-((1S,4S)-5-isopropyl-2,5-diazabicyclo[2.2.1]heptan-2-yl)phenylamino)-[1,2,4]triazolo[1,5-a]pyrazin-5-yl)-1H-pyrazole-3-carboxylate] | > 1 µM
5 | CC(C)N1C[C@@H]2C[C@H]1CN2c1ccc(Nc2ncc(-c3noc(C(N)=O)n3)n3ncnc23)cc1 [Compound 23, 3-(8-(4-((1S,4S)-5-isopropyl-2,5-diazabicyclo[2.2.1]heptan-2-yl)phenylamino)-[1,2,4]triazolo[1,5-a]pyrazin-5-yl)-1,2,4-oxadiazole-5-carboxamide] | > 1 µM
6 | CCOc1cc(-c2cnc(Nc3ccc(N4C[C@@H]5C[C@H]4CN5C(C)C)cc3)c3ncnn23)ccn1 [Compound 19, 5-(2-ethoxypyridin-4-yl)-N-(4-((1S,4S)-5-isopropyl-2,5-diazabicyclo[2.2.1]heptan-2-yl)phenyl)-[1,2,4]triazolo[1,5-a]pyrazin-8-amine] | > 1 µM
7 | CC(C)N1CC2CCC1CN2c1ccc(Nc2ncc(-c3coc(C(N)=O)c3)n3ncnc23)cc1 (centres unmarked) [Compound 9, 4-{8-(4-(5-isopropyl-2,5-diazabicyclo[2.2.2]octan-2-yl)phenylamino)[1,2,4]-triazolo[1,5-a]pyrazin-5-yl}-furan-2-carboxamide] | 0.001 to 1 µM
8 | CC(C)N1C[C@@H]2C[C@H]1CN2c1ccc(Nc2ncc(-c3ccc4c(c3)CNC4=O)n3ncnc23)cn1 [Compound 18, 5-{8-(6-((1S,4S)-5-isopropyl-2,5-diazabicyclo[2.2.1]heptan-2-yl)pyridin-3-ylamino)-[1,2,4]triazolo[1,5-a]pyrazin-5-yl}-2,3-dihydro-isoindol-1-one] | > 1 µM
9 | CC(C)N1C[C@@H]2C[C@H]1CN2c1ccc(Nc2ncc(-c3cc[nH]c(=O)c3)n3ncnc23)cc1 [Compound 20, 4-(8-(4-((1S,4S)-5-isopropyl-2,5-diazabicyclo[2.2.1]heptan-2-yl)phenylamino)-[1,2,4]triazolo[1,5-a]pyrazin-5-yl)pyridin-2(1H)-one] | > 1 µM
10 | CCOc1cc(-c2cnc(Nc3ccc(N4C[C@@H]5C[C@H]4CN5C(C)C)cc3)c3nccn23)ccn1 [Compound 22, 5-(2-ethoxypyridin-4-yl)-N-(4-((1S,4S)-5-isopropyl-2,5-diazabicyclo[2.2.1]heptan-2-yl)phenyl)imidazo[1,2-a]pyrazin-8-amine] | > 1 µM
11 | CC(C)N1C[C@@H]2C[C@H]1CN2c1ccc(Nc2ncc(-c3cc[nH]c(=O)c3)n3ccnc23)cc1 [Compound 8, 4-{8-(4-((1S,4S)-5-isopropyl-2,5-diazabicyclo[2.2.1]heptan-2-yl)phenyl-amino)imidazo[1,2-a]pyrazin-5-yl}-1H-pyridin-2-one] | 0.001 to 1 µM
12 | CC(C)N1CC2CCC(C1)N2c1ccc(Nc2ncc(-c3coc(C(N)=O)c3)n3ccnc23)cc1 [Compound 11, 4-{8-(4-(3-isopropyl-3,8-diazabicyclo[3.2.1]octan-8-yl)phenylamino)-imidazo[1,2-a]pyrazin-5-yl}-furan-2-carboxamide] | > 1 µM
13 | CC(C)N1C2CCC1CN(c1ccc(Nc3ncc(-c4coc(C(N)=O)c4)n4ncnc34)cc1)C2 [Compound 12, 4-{8-(4-(8-isopropyl-3,8-diazabicyclo[3.2.1]octan-3-yl)phenylamino)[1,2,4]-triazolo[1,5-a]pyrazin-5-yl}-furan-2-carboxamide] | > 1 µM
14 | CC(C)N1C[C@@H]2C[C@H]1CN2c1cccc(Nc2ncc(-c3coc(C(N)=O)c3)n3ncnc23)c1 [Compound 24, 4-(8-(3-((1S,4S)-5-isopropyl-2,5-diazabicyclo[2.2.1]heptan-2-yl)phenylamino)-[1,2,4]triazolo[1,5-a]pyrazin-5-yl)furan-2-carboxamide] | > 1 µM
15 | CC(C)N1C[C@@H]2C[C@H]1CN2c1cccc(Nc2ncc(-c3coc(C(N)=O)c3)n3ccnc23)c1 [Compound 25, 4-(8-(3-((1S,4S)-5-isopropyl-2,5-diazabicyclo[2.2.1]heptan-2-yl)phenylamino)imidazo[1,2-a]pyrazin-5-yl)furan-2-carboxamide] | > 1 µM
16 | CC(C)N1C[C@@H]2C[C@H]1CN2c1ccc(Nc2ncc(-c3coc(C(N)=O)c3)n3ccnc23)cc1 [Compound 4, 4-{8-[4-((1S,4S)-5-Isopropyl-2,5-diaza-bicyclo[2.2.1]hept-2-yl)-phenylamino]-imidazo[1,2-a]pyrazin-5-yl}-furan-2-carboxamide] | > 1 µM
17 | CC(C)N1C[C@@H]2C[C@H]1CN2c1cccc(Nc2ncc(-c3ccc4c(c3)CNC4=O)n3ncnc23)c1 [Compound 26, 5-(8-(3-((1S,4S)-5-isopropyl-2,5-diazabicyclo[2.2.1]heptan-2-yl)phenylamino)-[1,2,4]triazolo[1,5-a]pyrazin-5-yl)isoindolin-1-one] | > 1 µM
18 | CC(C)(C)N1C[C@@H]2C[C@H]1CN2c1ccc(Nc2ncc(-c3cc(C(N)=O)n[nH]3)n3ncnc23)cc1 [Compound 17, 5-{8-(4-((1S,4S)-5-tert-butyl-2,5-diazabicyclo[2.2.1]heptan-2-yl)phenyl-amino)-[1,2,4]triazolo[1,5-a]pyrazin-5-yl}-1H-pyrazole-3-carboxylic acid amide] | > 1 µM
19 | CC(C)(C)N1C[C@@H]2C[C@H]1CN2c1ccc(Nc2ncc(-c3coc(C(N)=O)c3)n3ncnc23)cc1 [Compound 3, 4-{8-[4-((1S,4S)-5-tert-Butyl-2,5-diaza-bicyclo[2.2.1]hept-2-yl)-phenylamino]-[1,2,4]triazolo[1,5-a]pyrazin-5-yl}-furan-2-carboxamide] | > 1 µM
20 | CC(C)(C)N1C[C@@H]2C[C@H]1CN2c1ccc(Nc2ncc(-c3coc(C(N)=O)c3)n3ccnc23)cc1 [Compound 6] | > 1 µM
